In PMC11881577, “In vitro and in vivo activity of 1,2,3,4,6-O-pentagalloyl-glucose against Candida albicans” (Antimicrobial Agents and Chemotherapy, 2025):

Assays:
[1] = molecular target: T1, CaEno1 (Candida albicans, UniProt P30575); test: spectrophotometric enolase assay (PEP formation at […] nm) on purified enzyme; supported by DARTS; type: biochemical
T1 construct: gene ENO1; recombinant, 6 × His tag, expressed in E. coli BL21(DE3)

[2] = molecular target: T2, hEno1 (Homo sapiens, UniProt P06733); test: spectrophotometric enolase assay (PEP formation at […] nm) on purified enzyme; type: biochemical
T2 construct: gene ENO1; recombinant hEno1, expressed and purified using the same procedure as CaEno1
T2 sequence (P06733 2-434): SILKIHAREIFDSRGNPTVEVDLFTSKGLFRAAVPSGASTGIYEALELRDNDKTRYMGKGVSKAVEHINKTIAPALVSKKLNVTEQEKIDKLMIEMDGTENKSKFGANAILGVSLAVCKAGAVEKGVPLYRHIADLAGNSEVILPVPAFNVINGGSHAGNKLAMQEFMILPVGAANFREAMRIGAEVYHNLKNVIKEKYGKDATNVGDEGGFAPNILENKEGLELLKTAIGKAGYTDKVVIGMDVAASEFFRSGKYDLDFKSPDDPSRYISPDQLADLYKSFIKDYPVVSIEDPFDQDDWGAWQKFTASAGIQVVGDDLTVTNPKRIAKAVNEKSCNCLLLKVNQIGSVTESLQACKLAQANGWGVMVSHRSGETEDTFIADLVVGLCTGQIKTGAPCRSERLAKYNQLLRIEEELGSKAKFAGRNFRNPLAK

T1 sequence (P30575 whole entry): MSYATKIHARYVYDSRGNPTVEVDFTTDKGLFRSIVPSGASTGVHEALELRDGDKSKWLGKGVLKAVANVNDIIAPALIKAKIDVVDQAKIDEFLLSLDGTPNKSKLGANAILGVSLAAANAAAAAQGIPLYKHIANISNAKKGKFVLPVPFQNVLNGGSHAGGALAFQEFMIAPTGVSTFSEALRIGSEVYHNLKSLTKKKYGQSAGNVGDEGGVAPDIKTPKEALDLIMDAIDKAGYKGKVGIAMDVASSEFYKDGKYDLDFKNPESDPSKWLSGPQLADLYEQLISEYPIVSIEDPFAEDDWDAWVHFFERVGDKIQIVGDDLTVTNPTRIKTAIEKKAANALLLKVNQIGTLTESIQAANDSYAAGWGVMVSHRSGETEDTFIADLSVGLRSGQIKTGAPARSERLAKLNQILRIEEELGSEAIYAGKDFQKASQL

Structure (SMILES): O=C(OC[C@H]1O[C@@H](OC(=O)c2cc(O)c(O)c(O)c2)[C@H](OC(=O)c2cc(O)c(O)c(O)c2)[C@@H](OC(=O)c2cc(O)c(O)c(O)c2)[C@@H]1OC(=O)c1cc(O)c(O)c(O)c1)c1cc(O)c(O)c(O)c1 [1,2,3,4,6-O-pentagalloyl-glucose]
- Ki [1]: 1100 ± 140 nM
- IC50 [2]: 1500 ± 270 nM
